In ChEMBL document CHEMBL5230153, “Bitopic Sigma 1 Receptor Modulators to Shed Light on Molecular Mechanisms Underpinning Ligand Binding and Receptor Oligomerization” (J Med Chem, 2021):
Calls of active or inactive are those of the source. The rule behind the calls is not given here.

Key:
[1] = molecular target: Sigma non-opioid intracellular receptor 1 (Cavia porcellus) (UniProt Q60492); assay: Displacement of [3H](+)-pentazocine from sigma 1 receptor in guinea pig brain membranes measured after 120 mins by scintillation counting method relative to control; format: cell membranes; settings: Membrane
[2] = molecular target: Sigma non-opioid intracellular receptor 1 (Cavia porcellus, UniProt Q60492); assay: Displacement of [3H](+)-pentazocine from sigma 1 receptor in guinea pig brain membranes measured after 120 mins by scintillation counting method; format: cell membranes, Membrane
PC-12 [3] = assay: Cytotoxicity against rat PC-12 cells assessed as cell death at 0.25 uM after 72 hrs incubation by LDH-based cytotoxic assay; format: toxicity; settings: pc-12, 72 h
PC-12 [4] = assay: Neuroprotective activity in rat PC-12 cells assessed as increase in NGF-mediated neurite outgrowth by measuring differentiated cells at 5 to 250 nM incubated for 72 hrs by bright-field microscopic analysis; format: functional, cell-based; settings: dose 5-250 nM
PC-12 [5] = assay: Neuroprotective activity in rat PC-12 cells assessed as increase in NGF-mediated neurite outgrowth by measuring differentiated cells at 5 to 250 nM in presence of 1 uM NE-100 incubated for 72 hrs by bright-field microscopic analysis; format: functional, cell-based; settings: dose 5-250 nM

Sequence of Sigma non-opioid intracellular receptor 1 (Q60492 whole entry): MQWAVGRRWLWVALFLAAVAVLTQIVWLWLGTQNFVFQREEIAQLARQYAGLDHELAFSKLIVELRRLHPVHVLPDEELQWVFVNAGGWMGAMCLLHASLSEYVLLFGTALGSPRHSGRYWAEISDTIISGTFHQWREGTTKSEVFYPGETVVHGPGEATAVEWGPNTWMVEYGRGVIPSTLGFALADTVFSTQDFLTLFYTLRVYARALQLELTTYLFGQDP
Sequence of Sigma non-opioid intracellular receptor 1 (Cavia porcellus) (Q60492 whole entry): as above

| Structure (SMILES) | inhibition [1] [%] | Ki [2] [nM] | Activity (PC-12 [3]) | Activity (PC-12 [4]) | Activity (PC-12 [5]) |
| --- | --- | --- | --- | --- | --- |
| C[C@H](CCN1CCC(NC(=O)COCC(=O)NC2CCN(CC[C@@H](C)c3ccc(-c4ccccc4)cc3)CC2)CC1)c1ccc(-c2ccccc2)cc1 | 0 | – | – | – | – |
| C[C@H](CCN1CCC(NC(=O)CCCCCC(=O)NC2CCN(CC[C@@H](C)c3ccc(-c4ccccc4)cc3)CC2)CC1)c1ccc(-c2ccccc2)cc1 | – | 1300 | – | – | – |
| C[C@H](CCN1CCC(NC(=O)CC(=O)NC2CCN(CC[C@@H](C)c3ccc(-c4ccccc4)cc3)CC2)CC1)c1ccc(-c2ccccc2)cc1 | – | 200 | Non-Toxic | Active | inactive |
| C[C@H](CCN1CCCCC1)c1ccc(-c2ccccc2)cc1 | – | – | Non-Toxic | Active | inactive |
| C[C@H](CCN1CCC(NC(=O)CCOCCOCCOCCOCCOCCOCCOCCOCCOCCC(=O)NC2CCN(CC[C@@H](C)c3ccc(-c4ccccc4)cc3)CC2)CC1)c1ccc(-c2ccccc2)cc1 | – | 799 | – | – | – |
| C[C@H](CCN1CCC(NC(=O)COCCOCCOCCOCCNC(=O)c2ccccc2)CC1)c1ccc(-c2ccccc2)cc1 | – | 1600 | – | – | – |
| C[C@H](CCN1CCC(NC(=O)CCCC(=O)NC2CCN(CC[C@@H](C)c3ccc(-c4ccccc4)cc3)CC2)CC1)c1ccc(-c2ccccc2)cc1 | – | 622 | – | – | – |

More lines, in order of falling Ki [2], values ahead:

| inhibition [1] [%] | Ki [2] [nM] | Structure (SMILES) | Activity (PC-12 [3]) | Activity (PC-12 [4]) | Activity (PC-12 [5]) |
| --- | --- | --- | --- | --- | --- |
| – | 134 | C[C@H](CCN1CCC(NC(=O)c2ccccc2C(=O)NC2CCN(CC[C@@H](C)c3ccc(-c4ccccc4)cc3)CC2)CC1)c1ccc(-c2ccccc2)cc1 | – | – | – |
| – | 11 | CC(=O)NC1CCN(CC[C@@H](C)c2ccc(-c3ccccc3)cc2)CC1 | Non-Toxic | Active | inactive |
| – | 2.6 | C[C@H](CCN1CCC(NC(=O)COCCOCC(=O)NC2CCN(CC[C@@H](C)c3ccc(-c4ccccc4)cc3)CC2)CC1)c1ccc(-c2ccccc2)cc1 | Non-Toxic | Active | inactive |
